These results are taken from US9579325B2, “Modulators of TNF-α signaling” (Genzyme Corporation, priority 2000, dated 2017).

One data set concerns L929 cells. The data set is described as follows: TNF High Throughput Screen (TNF-α driven apoptosis assay). Conditions: human TNF-α + actinomycin D; for pIC50: read-out: TNFα IC50; for inhibition at 1 µM: compound at 1 μM, read-out: TNFα % Inh. @ 1 μM. Type of data set: cell-based, mouse. The source says:
(§1) Description of Table V: The results shown in Table V were obtained using the TNF-α assays performed as described in the protocols entitled “Method for TNF High Throughput Screen” and “Method for VCAM High Throughput Screen”, which are detailed below. These assays measure a cellular response to TNF-α stimulation, and the data published in the table are expressed as percentage inhibitions. Percentage inhibition is computed on a scale of 0 to 100% where 0 percent inhibition means the compound has no effect in the assay (the response is indistinguishable from TNF-α treatment alone), and 100% inhibition means that when the compound is present at the stated concentration, the response in the assay is the same as if TNF-α were not added. These two assays measure two different outcomes of TNF-α treatment, cell death and Vascular Cell Adhesion Molecule (VCAM) expression, and capture two of TNF-α's many biological effects. TNF-α induced apoptosis is a mechanism by which TNF-α production during immune/inflammatory responses can lead to direct cellular and tissue damage. TNF-α VCAM expression in endothelial cells is a response that allows leukocytes to leave the blood and enter a site of immune/inflammatory response. Both of these activities could lead to pathology in immune/inflammatory diseases. In the first column of the table, the percentage inhibition of the TNF-α driven apoptosis assay when the compounds are tested at 1 μM concentration is presented. The second column in the table lists the IC50 for the compound, a standard measure using a dilution series in the assay, and fitting a sigmoidal curve to the resulting dose-response curve. The IC50 is the concentration (derived analytically from the sigmoidal function) at which the compound would inhibit 50% of the response in the assay. The third and fourth column list the corresponding analysis for the TNF-α driven VCAM assay. In Table VI, data corresponding to the data in column 1 of Table V is shown, with human cells replacing the mouse cells used in the high throughput screen. […] As a consequence, the compounds will have use in treating more than one TNF-α mediated condition, and may be selected according to the manner in which the condition manifests. This corresponds to the use of these compounds in the treatment of human disease.
TNF High Throughput Screen.
• 1. Plate 4×10^4 L929 cells in 100 μl of complete EMEM in Costar 96 well plates in PM. • 2. The next day, pretreat with compound, inhibitor and control vehicle for 2 hours. • 3. After 2 hours pretreatment, add 10 μl 5 ng/ml human TNF-α and actinomycin D (40 μg/ml final concentration). • 4. Incubate overnight. • 5. In AM, remove supernatant. • 6. Wash on a plate washer (0.9% NaCl). • 7. Add 100 μl Crystal Violet 0.1% in 20% ETOH. • 8. Incubate at RT for 10 minutes. • 9. Wash on plate washer. • 10. Air dry wells at 37° C. • 11. Add 100 μl of methanol to each well. • 12. Shake plates on orbital shaker and read at 595 nm on plate reader. VCAM High Throughput Screen: Protocol: • 1. Plate Primary human umbilical vein endothelial cells at 1.8×10^4 cells/well in a 96-well tissue culture plate. • 2. Return Plates to 37° C. incubator for 48-72 hours before assay. • 3. On assay day, aspirate wells and add 1804, of endothelial growth cell medium (EGM) to each well. • 4. Add Compound to each well. • 5. Shake plates for 3 minutes. • 6. Incubate plate for 1 hour at 37° C. • 7. Add Tumor Necrosis Factor (TNF) at 1.0 ng/ml final concentration. • 8. Shake plates for 3 minutes. • 9. Incubate plate for 2 hours at 37° C. • 10. Remove plate from incubator and wash plate 3 times with phosphate buffered saline (PBS) using a plate washer. • 11. Add anti-VCAM antibody at 0.5 μg/ml final concentration. • 12. Incubate at 4° C. overnight. • 13. Wash 3 times with PBS on plate washer. • 14. Add goat anti-mouse horseradish peroxidase conjugate. • 15. Incubate at room temperature for one hour. • 16. Wash 3 times with PBS on plate washer. • 17. […]

The test system of another data set is C57/BL mouse. The data set is described as follows: Sepsis model: murine LPS-d-galactosamine model. It is filed as in vivo. The note with it: prevention of mortality over three days. On the procedure:
Sepsis was induced in the C57/BL mouse by the intravenous injection of 20 ng of lipopolysaccharide/animal plus 20 mgs d-galactosamine/animal. Inhibition was measured as the prevention of mortality over a three day period. Compounds were administered intraperitoneally in 10% cremophore/10% ethanol/80% normal saline one hour before induction.

A further data set deals with male rats. Put plainly: Inflammatory Bowel Disease model: rat DNBS distal colitis. It is filed as in vivo. Conditions: 7 doses. On the procedure: Groups of three male rats weighing 150+/−10 g and fasted for 24 hours were used. Distal colitis was induced by intracolonic instillation of 0.5 ml/rat DNBS (2,4-dinitrobenzene sulfonic acid, 60 mg/ml in ethanol 30%) after which air (2 ml) was gently injected through the cannula to ensure that the solution remains in the colon. A test compound was administered orally 24 and 2 hours before DNBS-instillation and then daily for 5 days in a total of 7 doses. The animals were sacrificed 24 hours after the final dose of test compound administration and each colon was removed and weighed.

The nature of data set [1]: Pharmacokinetic parameters. Type of data set: in vivo. The note with it: for half-life: unit and species not given, read-out: Pharmacokinetic Parameters t1/2 (converted).
Data set [2] has as its system Vascular Cell Adhesion Molecule (VCAM) expression in primary human umbilical vein endothelial cells. Put plainly: VCAM High Throughput Screen (TNF-α driven VCAM expression). Type of data set: cell-based. Conditions: HUVEC, TNF 1.0 ng/ml.
Source text: as §1
• 1. Plate 4×10^4 L929 cells in 100 μl of complete EMEM in Costar 96 well plates in PM. • 2. The next day, pretreat with compound, inhibitor and control vehicle for 2 hours. • 3. After 2 hours pretreatment, add 10 μl 5 ng/ml human TNF-α and actinomycin D (40 μg/ml final concentration). • 4. Incubate overnight. • 5. In AM, remove supernatant. • 6. Wash on a plate washer (0.9% NaCl). • 7. […] Shake plates on orbital shaker and read at 595 nm on plate reader. […]

pIC50: −log10 of the molar value. Read-outs that look alike come from different tables or passages of the source. Where only a bound is given, the exact number is not on record here.

Turning to `O=C(c1ccccc1)c1ccccc1C(=O)N(CCc1c[nH]cn1)C(Cc1ccccc1)C(=O)NCC(c1ccccc1)c1ccccc1` (racemic) [Compound 43], the pIC50 – broadly, the IC50 on a negative log10 scale, so that one unit is a factor of ten – with L929 cells (Mus musculus) is 5.53. Moreover, in the data set with C57/BL mouse (10 mg/kg intraperitoneally one hour before induction), the “Sepsis: Murine LPS-d-galactosamine model % inhibition” value is recorded as 33 @ 10 mg/kg %. The “Inflammatory Bowel Disease: Rat DNBS model % inhibition of colonic weight gain” value with male rats (50 mg/kg orally) is on record as 31% @ 50 mg/kg. The bioavailability – broadly, dose-corrected exposure relative to a reference, in per cent – in data set [1] (in vivo, po, species not given) is less than 1%. In data set [1] (in vivo), the half-life is 3.6 h. For the compound `COc1ccc(C(C(=O)NCC(c2ccccc2)c2ccccc2)N(CCc2c[nH]cn2)C(=O)c2ccccc2C(=O)c2ccccc2)cc1C` (centres unmarked) [Compound 42], the pIC50 in the data set with L929 cells (Mus musculus) is 6.11; in data set [2] it was 4.80. In the case of `N#Cc1cccc(C(C(=O)NCCC(c2ccccc2)c2ccccc2)N(CCc2c[nH]cn2)C(=O)c2ccccc2C(=O)c2ccc(Cl)cc2)c1` (centres unmarked) [Compound 91], the inhibition at 1 µM with L929 cells (Mus musculus) was 71%. On the same count and under the same terms, in the case of `COc1ccc(CCNC(=O)C(c2cccc(C#N)c2)N(CCc2c[nH]cn2)C(=O)C(C)C)cc1` (centres unmarked) [Compound 92] it was 52%. With `Cc1nn(-c2nccc(-c3ccccn3)n2)c(C)c1Oc1ccc(C(C)C)cc1` [Compound 97, 2-[4-(4-Isopropyl-phenoxy)-3,5-dimethyl-pyrazol-1-yl]-4-pyridin-2-yl-pyrimidine], the negative logarithm of the IC50 (pIC50) in the data set on L929 cells (Mus musculus) was 6.40. On the same count and under the same terms, the same measure for `Cc1nn(-c2nccc(-c3ccccn3)n2)c(C)c1Oc1ccc(CN2CCN(Cc3ccccc3)CC2)cc1` [Compound 104, 2-{4-[4-(4-Benzyl-piperazin-1-ylmethyl)-phenoxy]-3,5-dimethyl-pyrazol-1-yl}-4-pyridin-2-yl-pyrimidine]: 7.30.

Regarding `Cc1nn(-c2nccc(-c3ccccn3)n2)c(C)c1SCc1ccc(Cl)cc1` [Compound 119, 2-[4-(4-Chloro-benzylsulfanyl)-3,5-dimethyl-pyrazol-1-yl]-4-pyridin-2-yl-pyrimidine], the negative-log IC50 (pIC50) in data set [2] was 5.10. Besides, the “Sepsis: Murine LPS-d-galactosamine model % inhibition” value in the data set with C57/BL mouse (200 mg/kg intraperitoneally one hour before induction) is 33 @ 200 mg/kg %. Besides, in the data set with male rats (100 mg/kg orally), the “Inflammatory Bowel Disease: Rat DNBS model % inhibition of colonic weight gain” value was determined as 51% @ 100 mg/kg. In addition, the half-life in data set [1] (in vivo) was 2.3 h. The “Pharmacokinetic Parameters % oral bioavailability” value in data set [1] (species not given) is given as “Undetectable”.

In the case of `Cc1nn(-c2nccc(-c3ccccn3)n2)c(C)c1S(=O)(=O)Cc1ccc(Cl)cc1` [Compound 124, 2-[4-(4-Chloro-phenylmethanesulfonyl)-3,5-dimethyl-pyrazol-1-yl]-4-pyridin-2-yl-pyrimidine], in data set [2], the pIC50 was 4.87.

As for `Nc1nc(-c2ccccn2)nc(-n2nc(-c3ccc(Cl)cc3)nc2Cc2ccccc2)n1` [Compound 133, 4-[5-Benzyl-3-(4-chloro-phenyl)-[1,2,4]triazol-1-yl]-6-pyridin-2-yl-[1,3,5]triazin-2-ylamine], the pIC50 with L929 cells (Mus musculus) is 4.71. Same read-out and setting: in the case of `Cc1nn(-c2ncnc(-c3ccccn3)n2)c(C)c1Sc1ccc(Cl)cc1` [Compound 141, 2-[4-(4-Chloro-phenylsulfanyl)-3,5-dimethyl-pyrazol-1-yl]-4-pyridin-2-yl-[1,3,5]triazine] it was 8.96. On the same count and under the same terms, in the case of `Cc1nn(-c2nc(N)nc(-c3ccccn3)n2)c(C)c1Cc1ccccc1` [Compound 142, 4-(4-Benzyl-3,5-dimethyl-pyrazol-1-yl)-6-pyridin-2-yl-[1,3,5]triazin-2-ylamine] it was 6.82. As to `Cc1nn(-c2nc(N)nc(-c3ccccn3)n2)c(C)c1CCCc1ccccc1` [Compound 144, 4-[3,5-Dimethyl-4-(3-phenyl-propyl)-pyrazol-1-yl]-6-pyridin-2-yl-[1,3,5]triazin-2-lyamine], the pIC50 in the data set on L929 cells was 7.82. For the compound `CC1=NN(c2nccc(-c3ccccn3)n2)C(=O)C1Sc1ccc(Cl)cc1` (centres unmarked) [Compound 147, 4-(4-Chloro-phenylsulfanyl)-5-methyl-2-(4-pyridin-2-yl-pyrimidin-2-yl)-2,4-dihydro-pyrazol-3-one], in the data set on L929 cells (Mus musculus), the negative logarithm of the IC50 (pIC50) is 6.13. The same measure, in the same setting: in the case of `COc1c(Sc2ccc(Cl)cc2)c(C)nn1-c1nccc(-c2ccccn2)n1` [Compound 148, 2-[4-(4-Chloro-phenylsulfanyl)-5-methoxy-3-methyl-pyrazol-1-yl]-4-pyridin-2-yl-pyrimidine] it was 4.49.
